In ChEMBL document CHEMBL4219047, “Optimization of peptide-based polyagonists for treatment of diabetes and obesity” (Bioorg Med Chem, 2018) one finds EC50 and Activity data, which are given here for three molecules.

The structures appear in SMILES notation.

Broadly, the EC50 is the concentration giving half of the maximal effect.

What all share (type): functional, cell-based
For experiment [1], the target named is T1, Glucagon-like peptide 1 receptor (Homo sapiens, UniProt P43220). The experiment is described as follows: Agonist activity at human GLP1 receptor expressed in HEK293 cells assessed as increase in cAMP level after 5 hrs by CRE driven luciferase reporter gene assay.
The target in experiment [2] is T2, Glucagon receptor (Homo sapiens, UniProt P47871). The experiment is described as follows: Agonist activity at human GCG receptor expressed in HEK293 cells assessed as increase in cAMP level after 5 hrs by CRE driven luciferase reporter gene assay.
Experiment [3] has as its target T1, Glucagon-like peptide 1 receptor. The experiment is described as follows: Agonist activity at human GLP1 receptor expressed in HEK293 cells assessed as increase in cAMP level after 5 hrs by CRE driven luciferase reporter gene assay relative to GLP1. Details: concentration or dose not given beside the values. On the technique in general: Cyclic AMP is a second messenger, typically raised through Gs and lowered through Gi signalling.

The target in experiment [4] is T2, Glucagon receptor. The experiment is described as follows: Agonist activity at human GCG receptor expressed in HEK293 cells assessed as increase in cAMP level after 5 hrs by CRE driven luciferase reporter gene assay relative to glucagon.
Experiment [5] addresses T3, Gastric inhibitory polypeptide receptor (Homo sapiens) (UniProt P48546).
T3 sequence (whole entry): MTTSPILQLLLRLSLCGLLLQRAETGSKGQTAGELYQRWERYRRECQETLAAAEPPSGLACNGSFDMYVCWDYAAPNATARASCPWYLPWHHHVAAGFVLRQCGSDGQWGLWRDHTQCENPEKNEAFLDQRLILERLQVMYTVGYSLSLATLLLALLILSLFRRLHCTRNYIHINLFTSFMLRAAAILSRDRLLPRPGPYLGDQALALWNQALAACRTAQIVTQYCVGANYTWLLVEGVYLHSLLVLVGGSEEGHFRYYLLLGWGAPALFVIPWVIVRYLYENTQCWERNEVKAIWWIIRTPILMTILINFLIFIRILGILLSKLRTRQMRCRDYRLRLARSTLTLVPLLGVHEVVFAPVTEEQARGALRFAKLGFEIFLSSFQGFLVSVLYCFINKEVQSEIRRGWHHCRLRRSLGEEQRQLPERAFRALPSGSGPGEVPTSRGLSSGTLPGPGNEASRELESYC
The experiment is described as follows: Agonist activity at human GIP receptor expressed in HEK293 cells assessed as increase in cAMP level after 5 hrs by CRE driven luciferase reporter gene assay relative to GIP. Details: concentration or dose not given beside the values.

Experiment [6] concerns the target T4, Gastric inhibitory polypeptide receptor (Homo sapiens, UniProt P48546).
T4 sequence (P48546 whole entry): T3 sequence (whole entry)
The experiment is described as follows: Agonist activity at human GIP receptor expressed in HEK293 cells assessed as increase in cAMP level after 5 hrs by CRE driven luciferase reporter gene assay.

T1 sequence (P43220 whole entry): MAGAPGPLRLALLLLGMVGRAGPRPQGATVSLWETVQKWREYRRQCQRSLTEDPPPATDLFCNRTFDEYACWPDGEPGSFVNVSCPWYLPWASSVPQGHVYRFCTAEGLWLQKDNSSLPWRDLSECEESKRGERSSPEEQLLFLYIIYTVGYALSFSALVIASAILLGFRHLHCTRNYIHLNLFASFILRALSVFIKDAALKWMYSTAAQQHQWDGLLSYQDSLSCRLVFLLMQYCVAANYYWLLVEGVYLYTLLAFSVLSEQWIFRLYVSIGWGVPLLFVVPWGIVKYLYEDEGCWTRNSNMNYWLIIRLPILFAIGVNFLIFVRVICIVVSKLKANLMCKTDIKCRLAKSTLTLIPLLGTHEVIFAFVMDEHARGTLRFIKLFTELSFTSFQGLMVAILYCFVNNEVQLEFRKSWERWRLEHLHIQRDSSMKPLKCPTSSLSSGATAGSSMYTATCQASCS
T2 sequence (P47871 whole entry): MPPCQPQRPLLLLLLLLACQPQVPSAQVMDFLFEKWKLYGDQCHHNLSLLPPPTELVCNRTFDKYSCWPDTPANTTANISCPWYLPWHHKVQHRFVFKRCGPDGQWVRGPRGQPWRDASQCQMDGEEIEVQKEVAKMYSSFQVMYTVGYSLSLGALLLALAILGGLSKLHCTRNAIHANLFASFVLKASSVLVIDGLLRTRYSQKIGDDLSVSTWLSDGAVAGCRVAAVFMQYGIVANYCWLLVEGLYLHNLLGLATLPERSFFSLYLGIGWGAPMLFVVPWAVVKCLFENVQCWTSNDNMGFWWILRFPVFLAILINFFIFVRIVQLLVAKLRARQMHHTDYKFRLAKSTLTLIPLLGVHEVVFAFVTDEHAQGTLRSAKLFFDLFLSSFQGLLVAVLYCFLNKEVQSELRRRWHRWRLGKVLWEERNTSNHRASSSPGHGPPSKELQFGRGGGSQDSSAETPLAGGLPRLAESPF

With `CCCCCCCCCCCCCCCC(=O)N[C@@H](CCC(=O)NCCCC[C@H](NC(=O)[C@H](CC(=O)O)NC(=O)[C@H](CO)NC(=O)[C@@H](NC(=O)[C@H](Cc1ccccc1)NC(=O)[C@@H](NC(=O)CNC(=O)[C@H](CCC(N)=O)NC(=O)[C@@H](C)NC(=O)[C@@H](N)Cc1cnc[nH]1)[C@@H](C)O)[C@@H](C)O)C(=O)N[C@@H](CO)C(=O)N[C@@H](CCCCN)C(=O)N[C@@H](Cc1ccc(O)cc1)C(=O)N[C@@H](CC(C)C)C(=O)N[C@@H](CC(=O)O)C(=O)N[C@@H](CCC(=O)O)C(=O)N[C@@H](CCCNC(=N)N)C(=O)N[C@@H](C)C(=O)N[C@@H](C)C(=O)N[C@@H](CCC(N)=O)C(=O)N[C@@H](CC(=O)O)C(=O)N[C@@H](Cc1ccccc1)C(=O)N[C@H](C(=O)N[C@@H](CCC(N)=O)C(=O)N[C@@H](Cc1c[nH]c2ccccc12)C(=O)N[C@@H](CC(C)C)C(=O)N[C@@H](CC(C)C)C(=O)N[C@@H](CC(=O)O)C(=O)N[C@H](C(N)=O)[C@@H](C)O)C(C)C)C(=O)O`, the EC50 in experiment [1] worked out at 0.04 nM; on Glucagon receptor [2], 0.009 nM. Further, the values for the Activity (in experiment [3]; on Glucagon receptor [4]; in experiment [5]) were 70%, 356% and 1%, respectively.
For the molecule `CCCCCCCCCCCCCCCC(=O)N[C@@H](CCC(=O)NCCCC[C@H](NC(=O)[C@H](CC(=O)O)NC(=O)[C@H](CO)NC(=O)[C@@H](NC(=O)[C@H](Cc1ccccc1)NC(=O)[C@@H](NC(=O)CNC(=O)[C@H](CCC(N)=O)NC(=O)C(C)(C)NC(=O)[C@@H](N)Cc1cnc[nH]1)[C@@H](C)O)[C@@H](C)O)C(=O)N[C@@H](CO)C(=O)N[C@@H](CCCCN)C(=O)N[C@@H](Cc1ccc(O)cc1)C(=O)N[C@@H](CC(C)C)C(=O)N[C@@H](CC(=O)O)C(=O)N[C@@H](CCC(=O)O)C(=O)N[C@@H](CCCNC(=N)N)C(=O)N[C@@H](C)C(=O)N[C@@H](C)C(=O)N[C@@H](CCC(N)=O)C(=O)N[C@@H](CC(=O)O)C(=O)N[C@@H](Cc1ccccc1)C(=O)N[C@H](C(=O)N[C@@H](CCC(N)=O)C(=O)N[C@@H](Cc1c[nH]c2ccccc12)C(=O)N[C@@H](CC(C)C)C(=O)N[C@@H](CC(C)C)C(=O)N[C@@H](CC(=O)O)C(=O)NCC(=O)N[C@@H](CCCNC(=N)N)C(=O)NCC(N)=O)C(C)C)C(=O)O`, the EC50 in experiment [1] is 0.004 nM; in experiment [6], 0.133 nM. Besides, the Activity in experiment [3] is 700%; at Glucagon receptor [4], 457%; in experiment [5], 15%.
Regarding `CCCCCCCCCCCCCCCC(=O)N[C@@H](CCC(=O)NCCCC[C@H](NC(=O)[C@H](CC(=O)O)NC(=O)[C@H](CO)NC(=O)[C@@H](NC(=O)[C@H](Cc1ccccc1)NC(=O)[C@@H](NC(=O)CNC(=O)[C@H](CCC(N)=O)NC(=O)[C@@H](CO)NC(=O)[C@@H](N)Cc1cnc[nH]1)[C@@H](C)O)[C@@H](C)O)C(=O)N[C@@H](CO)C(=O)N[C@@H](CCCCN)C(=O)N[C@@H](Cc1ccc(O)cc1)C(=O)N[C@@H](CC(C)C)C(=O)N[C@@H](CC(=O)O)C(=O)N[C@@H](CCC(=O)O)C(=O)N[C@@H](CCCNC(=N)N)C(=O)N[C@@H](C)C(=O)N[C@@H](C)C(=O)N[C@@H](CCC(N)=O)C(=O)N[C@@H](CC(=O)O)C(=O)N[C@@H](Cc1ccccc1)C(=O)N[C@H](C(=O)N[C@@H](CCC(N)=O)C(=O)N[C@@H](Cc1c[nH]c2ccccc12)C(=O)N[C@@H](CC(C)C)C(=O)N[C@@H](CC(C)C)C(=O)N[C@@H](CC(=O)O)C(=O)NCC(=O)N[C@@H](CCCNC(=N)N)C(=O)NCC(N)=O)C(C)C)C(=O)O`, the Activity in experiment [3] was found to be 1400%; at Glucagon receptor [4] it was 800%; in experiment [5] it was 2%.
